Measurements from patent publication EP0171968A1, “Use of a phospholipid derivative” (Takeda Chemical Industries, Ltd., priority 1984, dated 1986).
Converted amounts (≈) assume the structure as drawn. Blank lines part the entries; values can stand above or below the compound they belong to.

Legend:
S 180 cells [1] = test: Activity toward mice bearing the Sarcoma 180 tumor (subcutaneous transplant, tumor weight); assay type: in vivo, ICR mice; conditions: 25 mg/kg injected into the tumor every four days from the 7th day, four times; for Proliferation inhibition ratio (%): 24th day, against control group; for Weight of tumor: measured on the 24th day
Description: ICR mice (male, 8-week-old, a group consisting of 5 mice), as divided into two groups, were transplanted subcutaneously with 1 x 10^6 S 180 cells per mouse, respectively. One group was treated with the drug by injection into the tumor every four days commencing with the 7th day after the transplantation, four times in total. On the 24th day, the average tumor weight for the drug-treated group was measured, and the ratio (the tumor proliferation inhibition ratio) against that for the control group (not treated with the drug) was calculated.

rat platelet = test: Platelet aggregation; assay type: cell-based; conditions: concentration of 3 x 10-^5 M
Text: Neither l-0-octadecyl-2-0-(morpholinocarbonyl)glycero-3-phosphocholine nor 3-octadecyloxy-2-(morpholino-carbonyloxy)propyl 2-thiazolioethyl phosphate at a concentration of 3 x 10-^5 M caused platelet aggregation against rat platelet.

Meth A cells = test: Necrotic effect against the Meth A tumor tissue; assay type: in vivo, Balb/c mice; conditions: given intravenously, 7 days after transplantation, observed after 24 hours
S 180 cells [2] = test: Antitumor effect against mice bearing S 180 tumor (intraperitoneal inoculation, survival); assay type: in vivo, ICR mice; conditions: 0.3 mg/mouse once a day, three times in total; for T/C (%) (life-span prolongation ratio against the control group): control group average survival 12.2 days; for Number of mice surviving for 50 days: group of five ICR mice inoculated intraperitoneally with 1 x 10^5 S 180 cells
Description: ICR mice (a group consisting of five mice) were inoculated intraperitoneally with 1 x 10^5 S 180 cells per mouse, and then'given 0.3 mg/mouse of l-O-octadecyl-2-0-(morpholinocarbonyl)glycero-3-phosphocholine (Compound No. 1) dissolved in physiological saline once a day, three times in total, on the day of the inoculation and on the next day and the second day after the inoculation. The average of the survival days for the control group (consisting of 5 mice) was 12.2 days, whereas the number of surviving' mice in the drug-treated group on the 50th day and the life-span prolongation ratio (T/C) against the control group, are shown in Table 1.
In a similar manner, a test was carried out with 1-O-octadecyl-2-O-methylglycero-3-phosphocholine used as a control drug (A), with the results being shown below.

[3] = tested on: human myelocytic leukemia cells HL-60; test: Growth inhibiting effect and differentiation inducing activity on HL-60 (method of R. Gallo et al.); assay type: cell-based; conditions: HL-60 cells
Description: According to the method of R. Gallo et al. described in Blood 54 (3), 713 (1979), the growth inhibiting effect (IG effect)and differentiation inducing activity of 1-0-octadecyl-2-O-(morpholinocarbonyl)glycero-3-phosphocholine against human myelocytic leukemia cells HL-60 were assayed.

caused platelet aggregation against rat platelet (rat platelet): Neither
Compound: CCCCCCCCCCCCCCCCCCOCC(COP(=O)([O-])OCC[n+]1ccsc1)OC(=O)N1CCOCC1 (centres unmarked) [Drug 3, 3-Octadecyloxy-2-(morpholinocarbonyloxy)propyl 2-thiazolioethyl phosphate]
Proliferation inhibition ratio (%) (S 180 cells [1]): 73.9%
Weight of tumor (S 180 cells [1]): 0.39 g

Compound: CCCCCCCCCCCCCCCCCCOCC(COP(=O)([O-])OCC[N+](C)(C)C)OC(=O)N1CCCC1 (centres unmarked) [1-O-octadecyl-2-O-(pyrrolidinocarbonyl)glycero-3-phospho-choline]
change of the tumor tissue (necrosis) (Meth A cells; 25 mg/kg): necrosis through bleeding

Compound: CCCCCCCCCCCCCCCCCCOCC(COP(=O)([O-])OCC[N+](C)(C)C)OC(=O)N1CCCCC1 (centres unmarked) [Drug 2, 1-O-Octadecyl-2-O-(piperidinocarbonyl)glycero-3-phosphocholine]
Proliferation inhibition ratio (%) (S 180 cells [1]): 52.4%
Weight of tumor (S 180 cells [1]): 0.71 g

Compound: CCCCCCCCCCCCCCCCCCOCC(COP(=O)([O-])OCC[N+](C)(C)C)OC (centres unmarked) [Control drug A, 1-O-octadecyl-2-O-methylglycero-3-phosphocholine, reference compound]
T/C (%) (life-span prolongation ratio against the control group) (S 180 cells [2]): 162%
Number of mice surviving for 50 days (S 180 cells [2]): 0

Compound: CCCCCCCCCCCCCCCCCCOCC(COP(=O)([O-])OCC[N+](C)(C)C)OC(=O)N1CCOCC1 (stereo not drawn) [Compound 1, l-O-octadecyl-2-0-(morpholinocarbonyl)glycero-3-phosphocholine]
T/C (%) (life-span prolongation ratio against the control group) (S 180 cells [2]): >336%
Number of mice surviving for 50 days (S 180 cells [2]): 2
change of the tumor tissue (necrosis) (Meth A cells; 1.25 mg/kg): necrosis through bleeding
differentiation inducing activity ([3]; concentration of 1-2 ug/ml): mild differentiation inducing activity
IC50 ([3]; Homo sapiens, read-out: IG effect on HL-60 (GD50)): 0.6 µg/mL (≈ 0.963 µM)
caused platelet aggregation against rat platelet (rat platelet): Neither
